Test results from patent publication US6469177B1, “Surface active N-Halamine compounds” (Auburn University, priority 1997, dated 2002).

System: S. aureus (ATCC 6538)
Assay: Efficacy of N-halamine compounds against S. aureus in aqueous solution (Example 20)
Format: cell-based, Staphylococcus aureus
Conditions: pH 7.0; 22 ° C.; chlorine-demand-free water; 5 or 10 milligrams/liter total chlorine
Method: The bacterial efficacies of the compounds against S. aureus (ATCC 6538) in chlorine-demand-free water were determine by using techniques employed previously in extensive detail by Williams et al., Appl. Environ. Microbial., 54:2583 (1987). Solutions containing 10^6 CFU final cell densities of bacteria were prepared and treated with the various disinfectant compounds described in examples 1-17 at either 5 or 10 milligrams/liter total chlorine concentration which was previously determined by titration using a stock solution with sodium thiosulfate. Aliquots were removed at several predetermined times, and the active halogen was quenched by sterile 0.02 normal sodium thiosulfate. Serial dilutions were made into sterile saline, and three 25 microliter aliquots of each dilution were applied to the dried surface of a Petri dish containing nutrient agar. After incubation at 37° C. for 48 hours, the three replicates for each dilution were counted and averaged. Control samples containing no disinfectant, or in some cases, unchlorinated precursor compounds, were handled in the same manner. […] Inactivation of the organism was considered to be at least 99.9999% when no colonies were detected in the thiosulfate-quenched aliquots.

## C=CC(=O)OCC1(CC)COC(=O)N1Br (stereo not shown) [Polymer 1a-Br, 3-bromo-4-(acryloxymethyl)-4-ethyl-2-oxazolidinone]
  Contact Time for 6-log Inactivation of S. aureus: <5 min
